Source: patent US10961205B2, “1,2,4-oxadiazole derivatives as immunomodulators” (Aurigene Discovery Technologies Limited, priority 2013, dated 2021)

System: PD-L1
Assay: Rescue of mouse splenocyte proliferation in presence of recombinant PD-L1 (CFSE proliferation assay)
Assay type: cell-based
Conditions: anti-CD3/CD28 stimulated mouse splenocytes in presence of ligand (PDL-1), 72 h, stimulated splenocyte proliferation normalised as 100%
Protocol: Rescue of Mouse Splenocyte Proliferation in Presence of Recombinant PD-L1/PD-L2
Recombinant mouse PD-L1 (rm-PDL-1, cat no: 1019-B7-100 & rh-PDL-1, cat no: 156-B7-100, R&D Systems) were used as the source of PD-L1.
Mouse splenocytes harvested from 6-8 weeks old C57 BL6 mice; RPMI 1640 (GIBCO, Cat #11875); DMEM with high glucose (GIBCO, Cat #D6429); Fetal Bovine Serum [Hyclone, Cat #SH30071.03]; Penicillin (10000 unit/mL)-Streptomycin(10,000 μg/mL) Liquid (GIBCO, Cat #15140-122); MEM Sodium Pyruvate solution 100 mM (100×), Liquid (GIBCO, Cat #11360); Nonessential amino acid (GIBCO, Cat #11140); L-Glutamine (GIBCO, Cat #25030); Anti-CD3 antibody (eBiosciences—16-0032); Anti-CD28 antibody (eBiosciences—16-0281); ACK lysis buffer (1 mL) (GIBCO, Cat #-A10492); Histopaque (density-1.083 gm/mL) (SIGMA 10831); Trypan blue solution (SIGMA-T8154); 2 mL Norm Ject Luer Lock syringe-(Sigma 2014-12); 40 μm nylon cell strainer (BD FALCON 35230); Hemacytometer (Bright line-SIGMA Z359629); FACS Buffer (PBS/0.1% BSA): Phosphate Buffered Saline (PBS) pH 7.2 (HiMedia TS1006) with 0.1% Bovine Serum Albumin (BSA) (SIGMA A7050) and sodium azide (SIGMA 08591); 5 mM stock solution of CFSE: CFSE stock solution was prepared by diluting lyophilized CFSE with 180 μL of Dimethyl sulfoxide (DMSO C2H6SO, SIGMA-D-5879) and aliquoted in to tubes for further use. Working concentrations were titrated from 10 μM to 1 μM. (eBioscience—650850-85); 0.05% Trypsin and 0.02% EDTA (SIGMA 59417C); 96-well format ELISA plates (Corning CLS3390); BD FACS caliber (E6016); Recombinant mouse B7-H1/PDL1 Fc Chimera, (rm-PD-L1 cat no: 1019-B7-100).
Splenocytes harvested in a 50 mL falcon tube by mashing mouse spleen in a 40 μm cell strainer were further treated with 1 mL ACK lysis buffer for 5 min at room temperature. After washing with 9 mL of RPMI complete media, cells were re-suspended in 3 mL of 1×PBS in a 15 mL tube. 3 mL of Histopaque was added carefully to the bottom of the tube without disturbing overlaying splenocyte suspension. After centrifuging at 800×g for 20 min at room temperature, the opaque layer of splenocytes was collected carefully without disturbing/mixing the layers. Splenocytes were washed twice with cold 1×PBS followed by total cell counting using Trypan Blue exclusion method and used further for cell based assays.
Splenocytes were cultured in RPMI complete media (RPMI+10% fetal bovine serum+1 mM sodium pyruvate+10,000 units/mL penicillin and 10,000 μg/mL streptomycin) and maintained in a CO2 incubator with 5% CO2 at 37° C.
CFSE is a dye that passively diffuses into cells and binds to intracellular proteins. 1×10^6 cells/mL of harvested splenocytes were treated with 5 μM of CFSE in pre-warmed 1×PBS/0.1% BSA solution for 10 min at 37° C. Excess CFSE was quenched using 5 volumes of ice-cold culture media to the cells and incubated on ice for 5 min. CFSE labelled splenocytes were further given three washes with ice cold complete RPMI media. CFSE labelled 1×10^5 splenocytes added to wells containing either MDA-MB231 cells (1×10^5 cells cultured in high glucose DMEM medium) or recombinant […] PDL-1 (100 ng/mL) and test compounds. Splenocytes were stimulated with anti-mouse CD3 and anti-mouse CD28 antibody (1 μg/mL each), and the culture was further incubated for 72 h at 37° C. with 5% CO2. Cells were harvested and washed thrice with ice cold FACS buffer and % proliferation was analyzed by flow cytometry with 488 nm excitation and 521 nm emission filters.
Percent splenocyte proliferation was analyzed using cell quest FACS program and percent rescue of splenocyte proliferation by compound was estimated after deduction of % background proliferation value and normalising to % stimulated splenocyte proliferation (positive control) as 100%.
Stimulated splenocytes: Splenocytes+anti-CD3/CD28 stimulation
Background proliferation: Splenocytes+anti-CD3/CD28+PD-L1
Compound proliferation: Splenocytes+anti-CD3/CD28+PD-L1+Compound […]

Structure (SMILES): CC(O)[C@@H](N)c1noc([C@@H](CC(N)=O)NC(=O)N[C@H](CO)C(=O)O)n1 (some centres unmarked) [Compound 5]
- Percent rescue of splenocyte proliferation @ 100 nM compound concentration: 67.6%

Structure (SMILES): COC(=O)[C@@H](NC(=O)N[C@@H](CC(N)=O)c1nc([C@@H](N)CO)no1)C(C)O (some centres unmarked) [Compound 6]
- Percent rescue of splenocyte proliferation @ 100 nM compound concentration: 84%

Structure (SMILES): COC[C@H](N)c1noc([C@H](CC(N)=O)NC(=O)N[C@H](C(=O)O)C(C)O)n1 (some centres unmarked) [Compound 10]
- Percent rescue of splenocyte proliferation @ 100 nM compound concentration: 49%

Structure (SMILES): CC(O)[C@H](NC(=O)N[C@@H](CCC(N)=O)c1nc([C@@H](N)C(C)O)no1)C(=O)O (some centres unmarked) [Compound 23]
- Percent rescue of splenocyte proliferation @ 100 nM compound concentration: 74%

Structure (SMILES): CC(O)[C@H](NC(=O)N[C@@H](CCC(=O)O)c1nc([C@@H](N)CO)no1)C(=O)O (some centres unmarked) [Compound 19]
- Percent rescue of splenocyte proliferation @ 100 nM compound concentration: 88%

Structure (SMILES): NC(=O)CC[C@H](NC(=O)N[C@@H](CO)C(=O)O)c1nc([C@@H](N)CO)no1 [Compound 21]
- Percent rescue of splenocyte proliferation @ 100 nM compound concentration: 47%

Structure (SMILES): NC(=O)C[C@H](N)c1nc([C@@H](N)CO)no1 [Compound 1]
- Percent rescue of splenocyte proliferation @ 100 nM compound concentration: 93%

Structure (SMILES): CCCC(=O)N[C@@H](CO)c1noc([C@H](CC(N)=O)NC(=O)N[C@H](C(=O)O)C(C)O)n1 (some centres unmarked) [Compound 9]
- Percent rescue of splenocyte proliferation @ 100 nM compound concentration: 34%

Structure (SMILES): N[C@@H](CO)c1noc([C@H](CCC(=O)O)NC(=O)N[C@@H](CO)C(=O)O)n1 [Compound 8]
- Percent rescue of splenocyte proliferation @ 100 nM compound concentration: 67%

Structure (SMILES): CC(O)[C@H](N)c1noc([C@H](CCC(N)=O)NC(=O)N[C@@H](CO)C(=O)O)n1 (some centres unmarked) [Compound 22]
- Percent rescue of splenocyte proliferation @ 100 nM compound concentration: 55%

Structure (SMILES): CC(O)[C@@H](NC(=O)N[C@H](CC(N)=O)c1nc([C@H](N)CO)no1)C(=O)O (some centres unmarked) [Compound 15]
- Percent rescue of splenocyte proliferation @ 100 nM compound concentration: 83%

Structure (SMILES): CC(O)[C@@H](NC(=O)N[C@@H](CC(N)=O)c1nc([C@H](N)CO)no1)C(=O)O (some centres unmarked) [Compound 16]
- Percent rescue of splenocyte proliferation @ 100 nM compound concentration: 72%

Structure (SMILES): CC(O)[C@H](NC(=O)N[C@@H](CC(N)=O)c1nc([C@@H](N)CO)no1)C(N)=O (some centres unmarked) [Compound 7]
- Percent rescue of splenocyte proliferation @ 100 nM compound concentration: 55%

Structure (SMILES): CC(O)[C@H](NC(=O)N[C@H](CC(N)=O)c1nc([C@@H](N)CO)no1)C(=O)O (some centres unmarked) [Compound 13]
- Percent rescue of splenocyte proliferation @ 100 nM compound concentration: 74%

Structure (SMILES): CC(O)[C@H](NC(=O)N[C@@H](CC(N)=O)c1nc([C@@H](N)CO)no1)C(=O)O (some centres unmarked) [Compound 4]
- Percent rescue of splenocyte proliferation @ 100 nM compound concentration: 89%

Structure (SMILES): N[C@@H](CO)c1noc([C@H](CC(=O)O)NC(=O)N[C@@H](CO)C(=O)O)n1 [Compound 25]
- Percent rescue of splenocyte proliferation @ 100 nM compound concentration: 91%

Structure (SMILES): NC(=O)C[C@H](NC(=O)N[C@@H](CO)C(=O)O)c1nc([C@@H](N)CO)no1 [Compound 2]
- Percent rescue of splenocyte proliferation @ 100 nM compound concentration: 50%

Structure (SMILES): CC(O)[C@H](NC(=O)N[C@H](CC(N)=O)c1nc([C@H](N)CO)no1)C(=O)O (some centres unmarked) [Compound 17]
- Percent rescue of splenocyte proliferation @ 100 nM compound concentration: 55%

Structure (SMILES): CC(O)[C@H](NC(=O)N[C@@H](CCC(N)=O)c1nc([C@@H](N)CO)no1)C(=O)O (some centres unmarked) [Compound 20]
- Percent rescue of splenocyte proliferation @ 100 nM compound concentration: 69%

Structure (SMILES): CC(O)[C@@H](NC(=O)N[C@H](CC(N)=O)c1nc([C@@H](N)CO)no1)C(=O)O (some centres unmarked) [Compound 18]
- Percent rescue of splenocyte proliferation @ 100 nM compound concentration: 64%

Structure (SMILES): CC(O)[C@H](NC(=O)N[C@@H](CC(=O)O)c1nc([C@@H](N)CO)no1)C(=O)O (some centres unmarked) [Compound 24]
- Percent rescue of splenocyte proliferation @ 100 nM compound concentration: 52%

Structure (SMILES): CC(O)[C@@H](NC(=O)N[C@@H](CC(N)=O)c1nc([C@@H](N)CO)no1)C(=O)O (some centres unmarked) [Compound 11]
- Percent rescue of splenocyte proliferation @ 100 nM compound concentration: 90%

Structure (SMILES): CC(O)[C@H](NC(=O)N[C@@H](CC(N)=O)c1nc([C@H](N)CO)no1)C(=O)O (some centres unmarked) [Compound 12]
- Percent rescue of splenocyte proliferation @ 100 nM compound concentration: 64%
